Columns and labels:
[1] = test system: Leptinotarsa decemlineata; assay: Insecticidal activity against third-instar larval stage of Leptinotarsa decemlineata infested potato leaves assessed as mortality at 10 mg after 12 hr relative to control; assay type: functional
[2] = test system: Leptinotarsa decemlineata; assay type: functional, Instar larval stage
[3] = test system: Leptinotarsa decemlineata; assay type: functional, Instar larval stage; remark: listed apart in the source
[4] = test system: Leptinotarsa decemlineata; assay type: functional, Instar larval stage; remark: listed apart in the source
[5] = test system: Leptinotarsa decemlineata; assay: Insecticidal activity against second-instar larval stage of Leptinotarsa decemlineata infested potato leaves assessed as mortality at 20 mg after 12 hr relative to control; assay type: functional
[6] = test system: Leptinotarsa decemlineata; assay type: functional, Instar larval stage; remark: listed apart in the source
[7] = test system: Leptinotarsa decemlineata; assay type: functional, Instar larval stage; remark: listed apart in the source
[8] = test system: Leptinotarsa decemlineata; assay type: functional, Instar larval stage; remark: listed apart in the source
[9] = test system: Leptinotarsa decemlineata; assay: Insecticidal activity against second-instar larval stage of Leptinotarsa decemlineata infested potato leaves assessed as mortality at 10 mg after 12 hr relative to control; assay type: functional
[10] = test system: Leptinotarsa decemlineata; assay: Insecticidal activity against adult Leptinotarsa decemlineata infested potato leaves assessed as mortality at 20 mg after 96 hr relative to control; assay type: functional
[11] = test system: Leptinotarsa decemlineata; assay: Insecticidal activity against first-instar larval stage of Leptinotarsa decemlineata infested potato leaves assessed as mortality at 10 mg after 48 hr relative to control; assay type: functional
[12] = test system: Leptinotarsa decemlineata; assay: Insecticidal activity against first-instar larval stage of Leptinotarsa decemlineata infested potato leaves assessed as mortality at 20 mg after 96 hr relative to control; assay type: functional
[13] = test system: Leptinotarsa decemlineata; assay: Insecticidal activity against first-instar larval stage of Leptinotarsa decemlineata infested potato leaves assessed as mortality at 20 mg after 48 hr relative to control; assay type: functional
[14] = test system: Leptinotarsa decemlineata; assay: Insecticidal activity against first-instar larval stage of Leptinotarsa decemlineata infested potato leaves assessed as mortality at 20 mg after 24 hr relative to control; assay type: functional
[15] = test system: Leptinotarsa decemlineata; assay: Insecticidal activity against first-instar larval stage of Leptinotarsa decemlineata infested potato leaves assessed as mortality at 20 mg after 12 hr relative to control; assay type: functional
[16] = test system: Leptinotarsa decemlineata; assay: Insecticidal activity against first-instar larval stage of Leptinotarsa decemlineata infested potato leaves assessed as mortality at 10 mg after 96 hr relative to control; assay type: functional
[17] = test system: Leptinotarsa decemlineata; assay: Insecticidal activity against first-instar larval stage of Leptinotarsa decemlineata infested potato leaves assessed as mortality at 10 mg after 24 hr relative to control; assay type: functional
[18] = test system: Leptinotarsa decemlineata; assay: Insecticidal activity against adult Leptinotarsa decemlineata infested potato leaves assessed as mortality at 20 mg after 48 hr relative to control; assay type: functional
[19] = test system: Leptinotarsa decemlineata; assay: Insecticidal activity against adult Leptinotarsa decemlineata infested potato leaves assessed as mortality at 20 mg after 24 hr relative to control; assay type: functional
[20] = test system: Leptinotarsa decemlineata; assay: Insecticidal activity against adult Leptinotarsa decemlineata infested potato leaves assessed as mortality at 20 mg after 12 hr relative to control; assay type: functional
[21] = test system: Leptinotarsa decemlineata; assay: Insecticidal activity against adult Leptinotarsa decemlineata infested potato leaves assessed as mortality at 10 mg after 96 hr relative to control; assay type: functional
[22] = test system: Leptinotarsa decemlineata; assay: Insecticidal activity against adult Leptinotarsa decemlineata infested potato leaves assessed as mortality at 10 mg after 48 hr relative to control; assay type: functional
[23] = test system: Leptinotarsa decemlineata; assay: Insecticidal activity against adult Leptinotarsa decemlineata infested potato leaves assessed as mortality at 10 mg after 24 hr relative to control; assay type: functional
[24] = test system: Leptinotarsa decemlineata; assay: Insecticidal activity against adult Leptinotarsa decemlineata infested potato leaves assessed as mortality at 10 mg after 12 hr relative to control; assay type: functional
[25] = test system: Leptinotarsa decemlineata; assay: Insecticidal activity against first-instar larval stage of Leptinotarsa decemlineata infested potato leaves assessed as mortality at 10 mg after 12 hr relative to control; assay type: functional
[26] = test system: Leptinotarsa decemlineata; assay type: functional, Instar larval stage; remark: listed apart in the source
[27] = test system: Leptinotarsa decemlineata; assay type: functional, Instar larval stage; remark: listed apart in the source
[28] = test system: Leptinotarsa decemlineata; assay: Insecticidal activity against third-instar larval stage of Leptinotarsa decemlineata infested potato leaves assessed as mortality at 20 mg after 24 hr relative to control; assay type: functional
[29] = test system: Leptinotarsa decemlineata; assay: Insecticidal activity against third-instar larval stage of Leptinotarsa decemlineata infested potato leaves assessed as mortality at 20 mg after 12 hr relative to control; assay type: functional
[30] = test system: Leptinotarsa decemlineata; assay type: functional, Instar larval stage; remark: listed apart in the source
[31] = test system: Leptinotarsa decemlineata; assay type: functional, Instar larval stage; remark: listed apart in the source
[32] = test system: Leptinotarsa decemlineata; assay: Insecticidal activity against third-instar larval stage of Leptinotarsa decemlineata infested potato leaves assessed as mortality at 10 mg after 24 hr relative to control; assay type: functional

## CC12CCC(C1)C(C)(C)C2O (stereo not drawn) [FENCHYL ALCOHOL]
[1]
  mortality: 10%
[2]
  mortality: 3.3%
[3]
  mortality: 3.3%
[4]
  mortality: 3.3%
[5]
  mortality: 3.3%
[6]
  mortality: 13.3%
[7]
  mortality: 13.3%
[8]
  mortality: 10%
[9]
  mortality: 3.3%
[10]
  mortality: 20%
[11]
  mortality: 13.3%
[12]
  mortality: 3.3%
[13]
  mortality: 3.3%
[14]
  mortality: 3.3%
[15]
  mortality: 3.3%
[16]
  mortality: 13.3%
[17]
  mortality: 10%
[18]
  mortality: 6.7%
[19]
  mortality: 0%
[20]
  mortality: 0%
[21]
  mortality: 43.3%
[22]
  mortality: 16.7%
[23]
  mortality: 16.7%
[24]
  mortality: 3.3%
[25]
  mortality: 3.3%
[26]
  mortality: 23.3%
[27]
  mortality: 20%
[28]
  mortality: 10%
[29]
  mortality: 6.7%
[30]
  mortality: 30%
[31]
  mortality: 30%
[32]
  mortality: 23.3%

## CC12CCC(C1)C(C)(C)C2=O (stereo not drawn) [FENCHONE]
[1]
  mortality: 56.7%
[2]
  mortality: 100%
[3]
  mortality: 100%
[4]
  mortality: 100%
[5]
  mortality: 33.3%
[6]
  mortality: 73.3%
[7]
  mortality: 63.3%
[8]
  mortality: 50%
[9]
  mortality: 23.3%
[10]
  mortality: 100%
[11]
  mortality: 63.3%
[12]
  mortality: 100%
[13]
  mortality: 100%
[14]
  mortality: 83.3%
[15]
  mortality: 36.7%
[16]
  mortality: 83.3%
[17]
  mortality: 46.7%
[18]
  mortality: 100%
[19]
  mortality: 100%
[20]
  mortality: 90%
[21]
  mortality: 100%
[22]
  mortality: 100%
[23]
  mortality: 100%
[24]
  mortality: 53.3%
[25]
  mortality: 13.3%
[26]
  mortality: 100%
[27]
  mortality: 100%
[28]
  mortality: 100%
[29]
  mortality: 66.7%
[30]
  mortality: 100%
[31]
  mortality: 100%
[32]
  mortality: 93.3%

## C=C1C2CCC(C2)C1(C)C (stereo not drawn) [CAMPHENE]
[1]
  mortality: 0%
[10]
  mortality: 76.7%
[11]
  mortality: 6.7%
[12]
  mortality: 26.7%
[13]
  mortality: 23.3%
[14]
  mortality: 23.3%
[15]
  mortality: 13.3%
[16]
  mortality: 10%
[17]
  mortality: 0%
[18]
  mortality: 76.7%
[19]
  mortality: 73.3%
[20]
  mortality: 30%
[21]
  mortality: 13.3%
[22]
  mortality: 13.3%
[23]
  mortality: 13.3%
[24]
  mortality: 6.7%
[25]
  mortality: 0%
[26]
  mortality: 50%
[27]
  mortality: 46.7%
[28]
  mortality: 43.3%
[29]
  mortality: 16.7%
[30]
  mortality: 10%
[31]
  mortality: 6.7%
[32]
  mortality: 0%

## CC12CCC(CC1=O)C2(C)C (stereo not drawn) [CAMPHOR]
[1]
  mortality: 0%
[2]
  mortality: 86.7%
[3]
  mortality: 86.7%
[4]
  mortality: 83.3%
[5]
  mortality: 36.7%
[6]
  mortality: 70%
[7]
  mortality: 63.3%
[8]
  mortality: 46.7%
[9]
  mortality: 13.3%
[10]
  mortality: 93.3%
[11]
  mortality: 23.3%
[12]
  mortality: 86.7%
[13]
  mortality: 86.7%
[14]
  mortality: 53.3%
[15]
  mortality: 30%
[16]
  mortality: 76.7%
[17]
  mortality: 0%
[18]
  mortality: 43.3%
[19]
  mortality: 13.3%
[20]
  mortality: 6.7%
[21]
  mortality: 56.7%
[22]
  mortality: 36.7%
[23]
  mortality: 0%
[24]
  mortality: 0%
[25]
  mortality: 0%
[26]
  mortality: 36.7%
[27]
  mortality: 33.3%
[28]
  mortality: 30%
[29]
  mortality: 26.7%
[30]
  mortality: 6.7%
[31]
  mortality: 6.7%
[32]
  mortality: 0%

## CC1CCC(C(C)C)C(O)C1 (stereo not drawn) [MENTHOL]
[1]
  mortality: 20%
[2]
  mortality: 40%
[3]
  mortality: 33.3%
[4]
  mortality: 20%
[5]
  mortality: 0%
[6]
  mortality: 46.7%
[7]
  mortality: 26.7%
[8]
  mortality: 6.7%
[9]
  mortality: 3.3%
[10]
  mortality: 33%
[11]
  mortality: 16.7%
[12]
  mortality: 36.7%
[13]
  mortality: 30%
[14]
  mortality: 16.7%
[15]
  mortality: 0%
[16]
  mortality: 36.7%
[17]
  mortality: 3.3%
[18]
  mortality: 13.3%
[19]
  mortality: 0%
[20]
  mortality: 0%
[21]
  mortality: 30%
[22]
  mortality: 16.7%
[23]
  mortality: 3.3%
[24]
  mortality: 3.3%
[25]
  mortality: 0%
[26]
  mortality: 40%
[27]
  mortality: 40%
[28]
  mortality: 33.3%
[29]
  mortality: 26.7%
[30]
  mortality: 26.7%
[31]
  mortality: 23.3%
[32]
  mortality: 23.3%

## CC(C)[C@H]1CC[C@@H](C)C[C@@H]1O [ISOMENTHOL]
[1]
  mortality: 0%
[2]
  mortality: 0%
[3]
  mortality: 0%
[4]
  mortality: 0%
[5]
  mortality: 0%
[6]
  mortality: 0%
[7]
  mortality: 0%
[8]
  mortality: 0%
[9]
  mortality: 0%
[10]
  mortality: 26.7%
[11]
  mortality: 6.7%
[12]
  mortality: 0%
[13]
  mortality: 0%
[14]
  mortality: 0%
[15]
  mortality: 0%
[16]
  mortality: 10%
[17]
  mortality: 3.3%
[18]
  mortality: 20%
[19]
  mortality: 6.7%
[20]
  mortality: 6.7%
[21]
  mortality: 33.3%
[22]
  mortality: 30%
[23]
  mortality: 20%
[24]
  mortality: 0%
[25]
  mortality: 3.3%
[26]
  mortality: 6.7%
[27]
  mortality: 3.3%
[28]
  mortality: 0%
[29]
  mortality: 0%
[30]
  mortality: 0%
[31]
  mortality: 0%
[32]
  mortality: 0%

## CC1(C)C2CCC1(C)C(O)C2 (stereo not drawn) [BORNEOL]
[1]
  mortality: 0%
[2]
  mortality: 23.3%
[3]
  mortality: 16.7%
[4]
  mortality: 0%
[5]
  mortality: 0%
[6]
  mortality: 20%
[7]
  mortality: 0%
[8]
  mortality: 0%
[9]
  mortality: 0%
[10]
  mortality: 66.7%
[11]
  mortality: 0%
[12]
  mortality: 16.7%
[13]
  mortality: 6.7%
[14]
  mortality: 0%
[15]
  mortality: 0%
[16]
  mortality: 13.3%
[17]
  mortality: 0%
[18]
  mortality: 66.7%
[19]
  mortality: 20%
[20]
  mortality: 3.3%
[21]
  mortality: 23.3%
[22]
  mortality: 13.3%
[23]
  mortality: 0%
[24]
  mortality: 0%
[25]
  mortality: 0%
[26]
  mortality: 0%
[27]
  mortality: 0%
[28]
  mortality: 0%
[29]
  mortality: 0%
[30]
  mortality: 0%
[31]
  mortality: 0%
[32]
  mortality: 0%

## CC1=CC[C@@H](C(C)(C)O)CC1 [ALPHA-TERPINEOL]
[1]
  mortality: 0%
[2]
  mortality: 10%
[3]
  mortality: 6.7%
[4]
  mortality: 3.3%
[5]
  mortality: 0%
[6]
  mortality: 13.3%
[7]
  mortality: 6.7%
[8]
  mortality: 6.7%
[9]
  mortality: 0%
[10]
  mortality: 23.3%
[11]
  mortality: 13.7%
[12]
  mortality: 30%
[13]
  mortality: 26.7%
[14]
  mortality: 23.3%
[15]
  mortality: 16.7%
[16]
  mortality: 16.7%
[17]
  mortality: 6.7%
[18]
  mortality: 0%
[19]
  mortality: 0%
[20]
  mortality: 0%
[21]
  mortality: 16.7%
[22]
  mortality: 6.7%
[23]
  mortality: 0%
[24]
  mortality: 0%
[25]
  mortality: 3.3%
[26]
  mortality: 23.3%
[27]
  mortality: 20%
[28]
  mortality: 13.3%
[29]
  mortality: 13.3%
[30]
  mortality: 0%
[31]
  mortality: 0%
[32]
  mortality: 0%
